{"source": "patent US5739111A", "about": "“Modulating body/cranial hair growth with derivatives of the α-type melanocyte-stimulating hormone” (Societe L'Oreal S.A., priority 1995, dated 1998)", "tested_on": "hair follicles", "assay": "lengthening and survival of hair follicles maintained in vitro", "assay_type": "cell-based", "design": "Mean lengthening: unit not given here", "method": "Viable in vitro hair follicles were prepared according to the technique described in French Patent Application No. 95-08465, filed July 12, 1995 and assigned to the assignee hereof.\nFrom a scalp biopsy, a rather fine strip of scalp was isolated using a scalpel. The adipose tissue surrounding the follicles was removed with microforceps while avoiding damage to the hair bulb. The follicles were cut out with a scalpel under a microscope in order to separate them from their epidermal and dermal surroundings.\nThe follicles were then cultured in the wells of Costar-type 24-well plates, at the rate of one follicle per well. Each well contained 0.5 ml of Williams' medium E, to which had been added penicillin and Streptomycin to a final concentration of 50 IU/ml, glutamine to 2 mM, bovine insulin to 0.01 mg/ml and hydrocortisone to 0.04 mg/ml.\nThe follicles were then measured using a microscope equipped with a micrometric eyepiece.\nAfter 24 hours, the follicles were again measured and those which had lengthened by less than 0.3 divisions of the micrometer, corresponding to 0.16 mm, were discarded.\nThe five (5) following culturing conditions were tested:\nCondition A: Complete Williams' medium E, without peptide.\nCondition B: Complete Williams' medium E+10 mM Ac-LPV-NH2.\nCondition C: Complete Williams' medium E+1 mM Ac-LPV-N2.\nCondition D: Complete Williams' medium E+0.1 mM Ac-LPV-NH2.", "key": {"[1]": {"conditions": "summary in words, versus medium without peptide"}}, "note": "Where a SMILES comes first, the peptide text is derived from it."}
{"compound": "CC(=O)N[C@@H](CCCCN)C(=O)N1CCC[C@H]1C(=O)N[C@H](C(N)=O)C(C)C", "note": "[Acetyl-Lys-Pro-Val-NH2] (Ac-Lys-Pro-Val-NH2)", "values": [{"measurement": "Mean lengthening", "setting": "1 mM (Conditions C, E) in complete Williams' medium E, day 0", "result": 0.00}, {"measurement": "% Survival", "setting": "1 mM (Conditions C, E), day 0", "result": 100, "unit": "%"}, {"measurement": "% Survival", "setting": "1 mM (Conditions C, E), day 1", "result": 100, "unit": "%"}, {"measurement": "Mean lengthening", "setting": "1 mM (Conditions C, E), day 1", "result": 0.38}, {"measurement": "% Survival", "setting": "1 mM (Conditions C, E), day 4", "result": 100, "unit": "%"}, {"measurement": "Mean lengthening", "setting": "1 mM (Conditions C, E), day 4", "result": 1.05}, {"measurement": "% Survival", "setting": "1 mM (Conditions C, E), day 5", "result": 100, "unit": "%"}, {"measurement": "Mean lengthening", "setting": "1 mM (Conditions C, E), day 5", "result": 1.21}, {"measurement": "% Survival", "setting": "1 mM (Conditions C, E), day 6", "result": 100, "unit": "%"}, {"measurement": "Mean lengthening", "setting": "1 mM (Conditions C, E), day 6", "result": 1.28}, {"measurement": "% Survival", "setting": "1 mM (Conditions C, E), day 7", "result": 91, "unit": "%"}, {"measurement": "Mean lengthening", "setting": "1 mM (Conditions C, E), day 7", "result": 1.42}, {"measurement": "% Survival", "setting": "1 mM (Conditions C, E), day 8", "result": 55, "unit": "%"}, {"measurement": "Mean lengthening", "setting": "1 mM (Conditions C, E), day 8", "result": 1.39}, {"measurement": "% Survival", "setting": "1 mM (Conditions C, E), day 11", "result": 36, "unit": "%"}, {"measurement": "Mean lengthening", "setting": "1 mM (Conditions C, E), day 11", "result": 1.70}, {"measurement": "Mean lengthening", "setting": "Condition B, 10 mM in complete Williams' medium E, day 0", "result": 0.00}, {"measurement": "% Survival", "setting": "Condition B, 10 mM, day 0", "result": 100, "unit": "%"}, {"measurement": "% Survival", "setting": "Condition B, 10 mM, day 1", "result": 100, "unit": "%"}, {"measurement": "Mean lengthening", "setting": "Condition B, 10 mM, day 1", "result": 0.38}, {"measurement": "% Survival", "setting": "Condition B, 10 mM, day 4", "result": 100, "unit": "%"}, {"measurement": "Mean lengthening", "setting": "Condition B, 10 mM, day 4", "result": 1.11}, {"measurement": "% Survival", "setting": "Condition B, 10 mM, day 5", "result": 100, "unit": "%"}, {"measurement": "Mean lengthening", "setting": "Condition B, 10 mM, day 5", "result": 1.33}, {"measurement": "% Survival", "setting": "Condition B, 10 mM, day 6", "result": 100, "unit": "%"}, {"measurement": "Mean lengthening", "setting": "Condition B, 10 mM, day 6", "result": 1.43}, {"measurement": "% Survival", "setting": "Condition B, 10 mM, day 7", "result": 100, "unit": "%"}, {"measurement": "Mean lengthening", "setting": "Condition B, 10 mM, day 7", "result": 1.54}, {"measurement": "% Survival", "setting": "Condition B, 10 mM, day 8", "result": 92, "unit": "%"}, {"measurement": "Mean lengthening", "setting": "Condition B, 10 mM, day 8", "result": 1.74}, {"measurement": "% Survival", "setting": "Condition B, 10 mM, day 11", "result": 83, "unit": "%"}, {"measurement": "Mean lengthening", "setting": "Condition B, 10 mM, day 11", "result": 1.96}, {"measurement": "% Survival", "setting": "Condition B, 10 mM, day 12", "result": 42, "unit": "%"}, {"measurement": "Mean lengthening", "setting": "Condition B, 10 mM, day 12", "result": 2.40}, {"measurement": "Mean lengthening", "setting": "Condition D, 0.1 mM in complete Williams' medium E, day 0", "result": 0.00}, {"measurement": "% Survival", "setting": "Condition D, 0.1 mM, day 0", "result": 100, "unit": "%"}, {"measurement": "% Survival", "setting": "Condition D, 0.1 mM, day 1", "result": 100, "unit": "%"}, {"measurement": "Mean lengthening", "setting": "Condition D, 0.1 mM, day 1", "result": 0.37}, {"measurement": "% Survival", "setting": "Condition D, 0.1 mM, day 4", "result": 100, "unit": "%"}, {"measurement": "Mean lengthening", "setting": "Condition D, 0.1 mM, day 4", "result": 1.10}, {"measurement": "% Survival", "setting": "Condition D, 0.1 mM, day 5", "result": 100, "unit": "%"}, {"measurement": "Mean lengthening", "setting": "Condition D, 0.1 mM, day 5", "result": 1.22}, {"measurement": "% Survival", "setting": "Condition D, 0.1 mM, day 6", "result": 100, "unit": "%"}, {"measurement": "Mean lengthening", "setting": "Condition D, 0.1 mM, day 6", "result": 1.28}, {"measurement": "% Survival", "setting": "Condition D, 0.1 mM, day 7", "result": 83, "unit": "%"}, {"measurement": "Mean lengthening", "setting": "Condition D, 0.1 mM, day 7", "result": 1.42}, {"measurement": "% Survival", "setting": "Condition D, 0.1 mM, day 8", "result": 50, "unit": "%"}, {"measurement": "Mean lengthening", "setting": "Condition D, 0.1 mM, day 8", "result": 1.58}, {"measurement": "% Survival", "setting": "Condition D, 0.1 mM, day 11", "result": 42, "unit": "%"}, {"measurement": "Mean lengthening", "setting": "Condition D, 0.1 mM, day 11", "result": 2.08}, {"measurement": "% Survival", "setting": "Condition D, 0.1 mM, day 12", "result": 17, "unit": "%"}, {"measurement": "Mean lengthening", "setting": "Condition D, 0.1 mM, day 12", "result": 2.11}, {"measurement": "effect on lengthening of the cultured hair follicles", "setting": "[1]", "result": "promoted the lengthening"}, {"measurement": "effect on survival time of the cultured hair follicles", "setting": "[1]", "result": "increased their survival time"}]}
